Test results: ChEMBL document CHEMBL1201862, “PubChem BioAssay data set” (2004)
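Five concentrations, 48 hours, 96-well plates. GI50 is the concentration that inhibits growth by half.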 The source made the active and inactive calls. Rule as the data show it: active = GI50 up to about 1.1 µM and inactive = higher.

How the values were obtained:
Assay in all cases: NCI-60 cell line screen, 48 h
[1] = test system: DMS-273
[2] = test system: M19-MEL
[3] = test system: LXFL 529
[4] = test system: DMS-114
[5] = test system: SNB-78
[6] = test system: XF498
[7] = test system: DLD-1
[8] = test system: HOP-18
[9] = test system: RXF 631

SMILES	GI50 [1]	GI50 [2]	GI50 [3]	GI50 [4]	GI50 [5]	GI50 [6]	GI50 [7]	GI50 [8]	GI50 [9]
CC1(C)OC(=O)C(=Cc2ccc(O)cc2)C(=O)O1	> 100 µM (inactive)	> 100 µM (inactive)	> 100 µM (inactive)	> 100 µM (inactive)	> 100 µM (inactive)	> 100 µM (inactive)	–	–	–
CCCCCN(CCCCC)C(=O)[C@H](CCC(=O)O)NC(=O)c1cc2ccccc2[nH]1	49.2 µM (inactive)	45.5 µM (inactive)	56.6 µM (inactive)	52.5 µM (inactive)	95.1 µM (inactive)	44.9 µM (inactive)	38.3 µM (inactive)	–	–
C1COCCSC2=C(SCCO1)SC(=C1SC3=C(SCCOCCOCCS3)S1)S2	> 100 µM (inactive)	–	> 100 µM (inactive)	63.5 µM (inactive)	38 µM (inactive)	28.6 µM (inactive)	> 100 µM (inactive)	> 100 µM (inactive)	–
O=C(O)\C=C/C=C/C=C/C=C/C(=O)O	> 100 µM (inactive)	–	> 100 µM (inactive)	> 100 µM (inactive)	> 100 µM (inactive)	–	> 100 µM (inactive)	> 100 µM (inactive)	–
CC1=C(C(=O)Nc2ccc(Cl)c(Cl)c2)C(c2ccco2)C(C(=O)Nc2ccc(Cl)c(Cl)c2)=C(C)N1	16 µM (inactive)	11.8 µM (inactive)	11.9 µM (inactive)	9.16 µM (inactive)	17.3 µM (inactive)	1.11 µM (active)	10.3 µM (inactive)	12.5 µM (inactive)	12.9 µM (inactive)
COc1cc2c(c(C)c1O)[C@H]1COc3ccccc3[C@H]1O2	5.81 µM (inactive)	12.5 µM (inactive)	14.6 µM (inactive)	5.12 µM (inactive)	23.4 µM (inactive)	–	24.4 µM (inactive)	1.37 µM (inactive)	11.6 µM (inactive)
CC(=O)N(C(C)=O)C1=C2c3ccccc3N(S(=O)(=O)c3ccccc3)C2n2c(=O)n(-c3ccccc3)c(=O)n2C1 (centres undefined)	44.2 µM (inactive)	27.1 µM (inactive)	39.7 µM (inactive)	–	–	–	32.6 µM (inactive)	22 µM (inactive)	–
Nc1cc2c(C3OC(CO)C(O)C3O)n[nH]c2c(=S)[nH]1 (centres undefined)	> 100 µM (inactive)	> 100 µM (inactive)	> 100 µM (inactive)	> 100 µM (inactive)	> 100 µM (inactive)	> 100 µM (inactive)	> 100 µM (inactive)	–	> 100 µM (inactive)
O=c1nc2sc3ccc4ccccc4c3n2nc1O	39.8 µM (inactive)	–	68.1 µM (inactive)	75.2 µM (inactive)	70.3 µM (inactive)	–	40.9 µM (inactive)	71.3 µM (inactive)	–
COc1ccc(N2C(=O)C3C=CC(n4[nH]c(=O)n(Cc5ccccc5)c4=O)CC3C2=O)cc1 (centres undefined)	> 100 µM (inactive)	> 100 µM (inactive)	> 100 µM (inactive)	> 100 µM (inactive)	> 100 µM (inactive)	> 100 µM (inactive)	> 100 µM (inactive)	> 100 µM (inactive)	–
O=C1/C(=C/c2ccccc2Cl)COc2ccc(Br)cc21	32.3 µM (inactive)	> 100 µM (inactive)	63 µM (inactive)	38.3 µM (inactive)	43.1 µM (inactive)	27.2 µM (inactive)	65.9 µM (inactive)	54.1 µM (inactive)	–
Cc1ccc(C)c(N2C(=O)C(=O)C(c3nc4ccccc4s3)/C(=N/NC(=O)NN)C2=O)c1 (centres undefined)	> 100 µM (inactive)	> 100 µM (inactive)	> 100 µM (inactive)	> 100 µM (inactive)	> 100 µM (inactive)	> 100 µM (inactive)	> 100 µM (inactive)	> 100 µM (inactive)	> 100 µM (inactive)
C/C(=N\O)C(CN1CCCCC1)C(c1ccccc1)c1c(O)c2ccccc2oc1=O (centres undefined)	–	> 100 µM (inactive)	> 100 µM (inactive)	> 100 µM (inactive)	–	> 100 µM (inactive)	> 100 µM (inactive)	–	–
N#Cc1sc2nc3c(c(-c4ccccc4)c2c1N)CCCC3	57.9 µM (inactive)	> 100 µM (inactive)	> 100 µM (inactive)	0.225 µM (active)	56 µM (inactive)	37.9 µM (inactive)	–	–	9.25 µM (inactive)
CCOC(=O)CC(NC(=O)c1ccc(/N=N/N(C)C)cc1)C(=O)OCC (centres undefined)	> 100 µM (inactive)	> 100 µM (inactive)	> 100 µM (inactive)	–	–	–	> 100 µM (inactive)	–	–
c1ccc(COc2cccc3cccnc23)cc1	–	67.3 µM (inactive)	47.8 µM (inactive)	36.3 µM (inactive)	–	70.8 µM (inactive)	> 100 µM (inactive)	21.6 µM (inactive)	> 100 µM (inactive)
Nc1ccc(/C=C/c2ccnc3ccccc23)cc1	18.1 µM (inactive)	31 µM (inactive)	19.7 µM (inactive)	15.1 µM (inactive)	–	–	22.9 µM (inactive)	–	–
COC1OC(C)C(OCc2ccccc2)C(OS(=O)(=O)c2ccc(C)cc2)C1OS(=O)(=O)c1ccc(C)cc1 (centres undefined)	> 100 µM (inactive)	> 100 µM (inactive)	> 100 µM (inactive)	> 100 µM (inactive)	> 100 µM (inactive)	–	> 100 µM (inactive)	> 100 µM (inactive)	–
CCCc1nc(NC#N)nc(C(=O)Nc2ccccc2)c1CC	> 100 µM (inactive)	> 100 µM (inactive)	> 100 µM (inactive)	> 100 µM (inactive)	> 100 µM (inactive)	> 100 µM (inactive)	> 100 µM (inactive)	> 100 µM (inactive)	> 100 µM (inactive)
CCCCOC(=O)NC(=O)c1cn(CCCOC(=O)NCCCCCCNC(=O)OCCCn2cc(C(=O)NC(=O)OCCCC)c(=O)[nH]c2=O)c(=O)[nH]c1=O	> 100 µM (inactive)	> 100 µM (inactive)	90.4 µM (inactive)	> 100 µM (inactive)	> 100 µM (inactive)	18.7 µM (inactive)	> 100 µM (inactive)	> 100 µM (inactive)	> 100 µM (inactive)
N#CCC(=O)Nc1ccccc1O	> 100 µM (inactive)	> 100 µM (inactive)	> 100 µM (inactive)	–	> 100 µM (inactive)	> 100 µM (inactive)	> 100 µM (inactive)	> 100 µM (inactive)	> 100 µM (inactive)
O=[As]O	24.2 µM (inactive)	20.5 µM (inactive)	16.2 µM (inactive)	13.1 µM (inactive)	12.6 µM (inactive)	17.5 µM (inactive)	17.8 µM (inactive)	–	10.1 µM (inactive)
CC12C=C[C@]3(CC[C@@H]4[C@@](C)(CO)CCC[C@]4(C)C3CC1)C2 (some centres undefined)	16.1 µM (inactive)	19.2 µM (inactive)	16.9 µM (inactive)	15.5 µM (inactive)	18.6 µM (inactive)	19.6 µM (inactive)	> 10 µM (inactive)	–	–
CC(c1ccccc1)N1O[C@]12CC[C@@]1(C)C(CCCC13OCCO3)C2 (some centres undefined)	19.2 µM (inactive)	23 µM (inactive)	–	13.4 µM (inactive)	20.3 µM (inactive)	22.5 µM (inactive)	17.1 µM (inactive)	–	–
C#CCOCn1cnc2c(S)ncnc21	> 100 µM (inactive)	> 100 µM (inactive)	> 100 µM (inactive)	> 100 µM (inactive)	–	> 100 µM (inactive)	> 100 µM (inactive)	–	> 100 µM (inactive)
O=C(OC[C@H]1O[C@@H](OC(=O)c2cc(O)c(O)c(O)c2)[C@H](OC(=O)c2cc(O)c(O)c(O)c2)[C@@H](OC(=O)c2cc(O)c(O)c(O)c2)[C@@H]1OC(=O)c1cc(O)c(O)c(O)c1)c1cc(O)c(O)c(O)c1 [PENTAGALLOYL GLUCOSE]	1.46 µM (inactive)	9.14 µM (inactive)	11.4 µM (inactive)	4.21 µM (inactive)	9.51 µM (inactive)	4.85 µM (inactive)	7 µM (inactive)	36.6 µM (inactive)	–
